Values of other authors in patent US11608532B2, “Precision medicine for treating and preventing suicidality” (Indiana University Research and Technology Corporation, priority 2017, dated 2023).
Like-named read-outs stand apart in the source and are kept apart here.

Tests used:
[1] = tested on: top male bipolar biomarkers for suicidality
[2] = tested on: individual top biomarkers for suicidality; settings: for TNF modulated by drug in opposite direction to suicide: direction of change in suicidality (I) DE/1, (I) AP/1
[3] = biomarker AKAP13 (A kinase (PRKA) anchor protein 13)
[4] = A. Top Universal Biomarkers, direction of change in suicidality (I), DE/2
[5] = C. Top Biomarkers in Females, direction of change in suicidality I, DE/2
[6] = D. Top Biomarkers in Bipolar Disorder, direction of change in suicidality (I), DE/2
[7] = F. Top Biomarkers in Males with Bipolar Disorder, direction of change in suicidality (I), DE/2
[8] = biomarker HTR2A (5-hydroxytryptamine (serotonin) receptor 2A, G protein-coupled)
[9] = HTR2A, 244130_at, (I) in suicidality, male bipolars
[10] = D. Top Biomarkers in Bipolar Disorder

Molecule: CCO [Alcohol]
- Drugs that Modulate the Biomarker in Opposite Direction to Suicide (direction of change by drug) [1]: (D) and (I)

Molecule: CN1C(=O)CN=C(c2ccccc2)c2cc(Cl)ccc21 [Diazepam]
- Step 6 Drugs that Modulate the Biomarker in Opposite Direction to Suicide [2, 3]: Diazepam
- Step 6 Drugs that Modulate the Biomarker in Opposite Direction to Suicide ([2]; biomarker PGK1 (phosphoglycerate kinase 1)): Diazepam
- Step 6 Drugs that Modulate the Biomarker in Opposite Direction to Suicide ([2]; biomarker PSMB4): Diazepam
- Drugs that modulate the biomarker SPTBN1 ([2]; biomarker SPTBN1 (spectrin, beta, non-erythrocytic 1), Table 20 CFE drug-evidence): Diazepam
- Drugs that Modulate the Biomarker in Opposite Direction to Suicide ([1]; SPTBN1, 215918_s_at, (I) in suicidality, male bipolars): Diazepam

Molecule: CN[C@@H](C)Cc1ccccc1 [Methamphetamine]
- Drugs that Modulate the Biomarker in Opposite Direction to Suicide ([1]; CRYAB, 209283_at, (I) in suicidality, male bipolars): Methamphetamine

Molecule: Cc1nc2n(c(=O)c1CCN1CCC(c3noc4cc(F)ccc34)CC1)CCCC2O (stereo not drawn) [Paliperidone]
- HTR2A modulated by drug in opposite direction to suicide [2, 4]: Paliperidone,
- HTR2A modulated by drug in opposite direction to suicide [2, 5]: Paliperidone,
- HTR2A modulated by drug in opposite direction to suicide [2, 6]: Paliperidone,
- HTR2A modulated by drug in opposite direction to suicide [2, 7]: Paliperidone,
- Step 6 Drugs that Modulate the Biomarker in Opposite Direction to Suicide [2, 8]: Paliperidone,
- Drugs that Modulate the Biomarker in Opposite Direction to Suicide [1, 9]: Paliperidone

Molecule: Cc1nc2n(c(=O)c1CCN1CCC(c3noc4cc(F)ccc34)CC1)CCCC2 [Risperidone]
- IFNG modulated by drug in opposite direction to suicide ([2]; A. Top Universal Biomarkers, direction of change in suicidality (D), AP/1): Risperidone,
- Step 6 Drugs that Modulate the Biomarker in Opposite Direction to Suicide [2, 8]: Risperidone
- Drugs that Modulate the Biomarker in Opposite Direction to Suicide [1, 9]: Risperidone

Molecule: CN(C)CCC=C1c2ccccc2CCc2ccccc21 [amitriptyline]
- Drugs that Modulate the Biomarker in Opposite Direction to Suicide [1, 9]: amitriptyline

Molecule: CN1CCc2cccc3c2[C@H]1Cc1ccc(O)c(O)c1-3 [apomorphine]
- Drugs that Modulate the Biomarker in Opposite Direction to Suicide [1, 9]: apomorphine

Molecule: O=C1CCc2ccc(OCCCCN3CCN(c4cccc(Cl)c4Cl)CC3)cc2N1 [aripiprazole]
- Drugs that Modulate the Biomarker in Opposite Direction to Suicide [1, 9]: aripiprazole

Molecule: CN1CCC(=C2c3ccccc3CCc3cccnc32)CC1 [azatadine]
- Drugs that Modulate the Biomarker in Opposite Direction to Suicide [1, 9]: azatadine

Molecule: CN(C)CCCN1c2ccccc2CCc2ccc(Cl)cc21 [clomipramine]
- Drugs that Modulate the Biomarker in Opposite Direction to Suicide [1, 9]: clomipramine

Molecule: CNCCCN1c2ccccc2CCc2ccccc21 [desipramine]
- Drugs that Modulate the Biomarker in Opposite Direction to Suicide [1, 9]: desipramine

Molecule: CN1C[C@H](C(=O)N[C@]2(C)O[C@@]3(O)[C@@H]4CCCN4C(=O)[C@H](Cc4ccccc4)N3C2=O)C[C@@H]2c3cccc4[nH]cc(c34)C[C@H]21 [dihydroergotamine]
- Drugs that Modulate the Biomarker in Opposite Direction to Suicide [1, 9]: dihydroergotamine

Molecule: CN(C)CCC=C1c2ccccc2COc2ccccc21 [doxepin]
- Drugs that Modulate the Biomarker in Opposite Direction to Suicide [1, 9]: doxepin

Molecule: CN1C[C@H](C(=O)N[C@]2(C)O[C@@]3(O)[C@@H]4CCCN4C(=O)[C@H](Cc4ccccc4)N3C2=O)C=C2c3cccc4[nH]cc(c34)C[C@H]21 [ergotamine]
- Drugs that Modulate the Biomarker in Opposite Direction to Suicide [1, 9]: ergotamine

Molecule: O=C(CCCN1CCC(O)(c2ccc(Cl)cc2)CC1)c1ccc(F)cc1 [haloperidol, reference compound]
- BDNF modulated by drug in opposite direction to suicide [2, 5]: Haloperidol
- BDNF modulated by drug in opposite direction to suicide ([2]; E. Top Biomarkers in Depression, direction of change in suicidality (I), DE/1): Haloperidol
- Drugs that modulate the biomarker AGA ([2]; biomarker AGA (aspartyl glucosaminidase), Table 20 CFE drug-evidence): Haloperidol
- Step 6 Drugs that Modulate the Biomarker in Opposite Direction to Suicide ([2]; biomarker AGA (aspartylglucosaminidase)): Haloperidol
- Step 6 Drugs that Modulate the Biomarker in Opposite Direction to Suicide [2, 3]: Haloperidol
- Drugs that modulate the biomarker RIMS3 ([2]; biomarker RIMS3 (regulating synaptic membrane exocytosis 3), Table 20 CFE drug-evidence): Haloperidol

Molecule: CCN(CC)C(=O)N[C@H]1C=C2c3cccc4[nH]cc(c34)C[C@H]2N(C)C1 [lisuride]
- Drugs that Modulate the Biomarker in Opposite Direction to Suicide [1, 9]: lisuride

Molecule: CN1CCCCC1CCN1c2ccccc2Sc2ccc([S+](C)[O-])cc21 (stereo not drawn) [mesoridazine]
- Drugs that Modulate the Biomarker in Opposite Direction to Suicide [1, 9]: mesoridazine

Molecule: CC[C@@H](CO)NC(=O)[C@@H]1C=C2c3cccc4c3c(cn4C)C[C@H]2N(C)C1 [methysergide]
- Drugs that Modulate the Biomarker in Opposite Direction to Suicide [1, 9]: methysergide

Molecule: CN1CCN2c3ncccc3Cc3ccccc3C2C1 (stereo not drawn) [mirtazapine]
- HTR2A modulated by drug in opposite direction to suicide [2, 4]: mirtazapine,
- HTR2A modulated by drug in opposite direction to suicide [2, 5]: mirtazapine,
- HTR2A modulated by drug in opposite direction to suicide [2, 6]: mirtazapine,
- HTR2A modulated by drug in opposite direction to suicide [2, 7]: mirtazapine,
- Drugs that Modulate the Biomarker in Opposite Direction to Suicide [1, 9]: mirtazapine

Molecule: CCc1nn(CCCN2CCN(c3cccc(Cl)c3)CC2)c(=O)n1CCOc1ccccc1 [nefazodone]
- Drugs that Modulate the Biomarker in Opposite Direction to Suicide [1, 9]: nefazodone

Molecule: OCCN1CCN(CCCN2c3ccccc3C=Cc3ccccc32)CC1 [opipramol]
- HTR2A modulated by drug in opposite direction to suicide [2, 4]: opipramol,
- HTR2A modulated by drug in opposite direction to suicide [2, 5]: opipramol,
- HTR2A modulated by drug in opposite direction to suicide [2, 6]: opipramol,
- HTR2A modulated by drug in opposite direction to suicide [2, 7]: opipramol,

Molecule: OCCOCCN1CCN(C2=Nc3ccccc3Sc3ccccc32)CC1 [quetiapine]
- Drugs that Modulate the Biomarker in Opposite Direction to Suicide [1, 9]: quetiapine

Molecule: O=C1NCCN1CCN1CCC(c2cn(-c3ccc(F)cc3)c3ccc(Cl)cc23)CC1 [sertindole]
- Drugs that Modulate the Biomarker in Opposite Direction to Suicide [1, 9]: sertindole

Molecule: O=C1CCC(N2C(=O)c3ccccc3C2=O)C(=O)N1 (stereo not drawn) [thalidomide]
- TNF modulated by drug in opposite direction to suicide [2, 10]: thalidomide

Molecule: CN1CCN(CCCN2c3ccccc3Sc3ccc(S(=O)(=O)N(C)C)cc32)CC1 [thioproperazine]
- HTR2A modulated by drug in opposite direction to suicide [2, 4]: thioproperazine,
- HTR2A modulated by drug in opposite direction to suicide [2, 5]: thioproperazine,
- HTR2A modulated by drug in opposite direction to suicide [2, 6]: thioproperazine,
- HTR2A modulated by drug in opposite direction to suicide [2, 7]: thioproperazine,

Molecule: CSc1ccc2c(c1)N(CCC1CCCCN1C)c1ccccc1S2 (stereo not drawn) [thioridazine]
- Drugs that Modulate the Biomarker in Opposite Direction to Suicide [1, 9]: thioridazine

Molecule: O=C1Cc2cc(CCN3CCN(c4nsc5ccccc45)CC3)c(Cl)cc2N1 [ziprasidone]
- Drugs that Modulate the Biomarker in Opposite Direction to Suicide [1, 9]: ziprasidone

Molecule: Oblimersen
- Step 6 Drugs that Modulate the Biomarker in Opposite Direction to Suicide ([2]; biomarker BCL2 (B-cell CLL/lymphoma 2)): Oblimersen

Molecule: Recombinant-methionyl human leptin
- Step 6 Drugs that Modulate the Biomarker in Opposite Direction to Suicide ([2]; biomarker LEPR (leptin receptor)): Recombinant-

Molecule: Tocilizumab
- Step 6 Drugs that Modulate the Biomarker in Opposite Direction to Suicide ([2]; biomarker IL6 (interleukin 6)): Tocilizumab

Molecule: etanercept
- TNF modulated by drug in opposite direction to suicide [2, 10]: , etanercept,

Molecule: golimumab
- TNF modulated by drug in opposite direction to suicide [2, 10]: golimumab,

Molecule: infliximab
- TNF modulated by drug in opposite direction to suicide [2, 10]: infliximab,

Molecule: omega-3 fatty acids [reference compound]
- Matching to Treatments (Pharmacogenomics) Drugs that Modulate the Biomarker in opposite Direction to Suicide (BioM50 panel biomarkers): Omega-3
- Drugs that Modulate the Biomarker in Opposite Direction to Suicide [1]: Omega-3
- Drugs that Modulate the Biomarker in Opposite Direction to Suicide (direction of change by drug) [1]: (I)

Molecule: tocilizumab
- IL6 modulated by drug in opposite direction to suicide ([2]; B. Top Biomarkers in Males, direction of change in suicidality I, AP/2): tocilizumab,
